Read-outs that look alike come from different tables or passages of the source. No end group written: not given here.
Assays:
[1] = tested on: EphB1; test: EphB receptor specificity (% binding), Table 1; conditions: binding to EphB1
[2] = molecular target: T1, EphB1 (Homo sapiens, UniProt P54762); test: Inhibition of ephrin-B2 AP binding by peptides panned on EphB1 (Table 1)
T1 sequence (P54762 18-540 limits assumed): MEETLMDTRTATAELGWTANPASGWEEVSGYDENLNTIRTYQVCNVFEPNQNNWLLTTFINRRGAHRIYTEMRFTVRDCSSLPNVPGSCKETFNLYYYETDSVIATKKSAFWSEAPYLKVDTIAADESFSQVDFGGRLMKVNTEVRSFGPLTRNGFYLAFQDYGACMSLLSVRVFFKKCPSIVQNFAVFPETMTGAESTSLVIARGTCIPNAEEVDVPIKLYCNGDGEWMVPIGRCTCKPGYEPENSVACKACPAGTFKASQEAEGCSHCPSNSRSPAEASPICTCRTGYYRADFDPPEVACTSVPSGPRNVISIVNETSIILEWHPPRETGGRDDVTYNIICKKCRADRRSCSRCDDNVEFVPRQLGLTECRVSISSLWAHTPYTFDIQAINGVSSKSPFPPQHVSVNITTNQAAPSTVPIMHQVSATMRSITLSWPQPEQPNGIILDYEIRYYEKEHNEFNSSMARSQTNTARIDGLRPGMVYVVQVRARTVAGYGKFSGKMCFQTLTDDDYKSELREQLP

[3] = molecular target: EphB2 (Homo sapiens, UniProt P29323); test: EphB receptor specificity (% binding), Table 1; conditions: binding to EphB2
Chain of EphB2 (P29323 19-1055): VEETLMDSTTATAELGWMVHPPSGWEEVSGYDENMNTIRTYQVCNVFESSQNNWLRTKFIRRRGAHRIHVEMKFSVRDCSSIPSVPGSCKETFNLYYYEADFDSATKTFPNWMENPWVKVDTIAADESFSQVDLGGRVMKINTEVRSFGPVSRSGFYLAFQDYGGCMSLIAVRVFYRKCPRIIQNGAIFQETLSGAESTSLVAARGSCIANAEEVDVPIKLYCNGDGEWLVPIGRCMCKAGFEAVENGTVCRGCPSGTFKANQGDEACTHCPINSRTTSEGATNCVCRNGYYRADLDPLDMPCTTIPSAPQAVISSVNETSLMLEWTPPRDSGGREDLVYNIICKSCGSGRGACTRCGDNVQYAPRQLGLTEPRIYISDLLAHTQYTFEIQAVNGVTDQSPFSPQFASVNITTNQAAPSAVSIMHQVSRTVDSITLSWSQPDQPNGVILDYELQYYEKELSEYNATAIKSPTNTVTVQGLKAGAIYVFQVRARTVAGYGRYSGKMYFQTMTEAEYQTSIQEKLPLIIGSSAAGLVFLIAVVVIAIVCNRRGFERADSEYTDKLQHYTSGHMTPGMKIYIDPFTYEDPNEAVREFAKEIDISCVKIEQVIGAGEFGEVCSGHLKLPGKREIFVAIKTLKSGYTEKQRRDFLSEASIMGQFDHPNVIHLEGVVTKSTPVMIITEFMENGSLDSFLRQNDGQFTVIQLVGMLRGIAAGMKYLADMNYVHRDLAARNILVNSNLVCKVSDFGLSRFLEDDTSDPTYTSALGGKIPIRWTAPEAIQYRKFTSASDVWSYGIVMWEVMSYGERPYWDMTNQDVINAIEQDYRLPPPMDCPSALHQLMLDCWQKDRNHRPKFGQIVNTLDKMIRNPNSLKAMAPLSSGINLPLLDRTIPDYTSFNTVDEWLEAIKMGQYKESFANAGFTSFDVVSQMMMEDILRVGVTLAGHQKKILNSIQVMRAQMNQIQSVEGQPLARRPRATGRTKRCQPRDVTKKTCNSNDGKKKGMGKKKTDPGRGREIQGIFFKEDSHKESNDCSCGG

[4] = molecular target: T2, murine EphB4/murine ephrin-B2 (Mus musculus, UniProt P54761); test: Inhibition of murine EphB4-AP binding to immobilized murine ephrin-B2-Fc (Table 4); conditions: based on the estimated concentration of peptide-coupled PEG molecules, No PEG control not biotinylated
T2 sequence (P54761 16-539 limits assumed): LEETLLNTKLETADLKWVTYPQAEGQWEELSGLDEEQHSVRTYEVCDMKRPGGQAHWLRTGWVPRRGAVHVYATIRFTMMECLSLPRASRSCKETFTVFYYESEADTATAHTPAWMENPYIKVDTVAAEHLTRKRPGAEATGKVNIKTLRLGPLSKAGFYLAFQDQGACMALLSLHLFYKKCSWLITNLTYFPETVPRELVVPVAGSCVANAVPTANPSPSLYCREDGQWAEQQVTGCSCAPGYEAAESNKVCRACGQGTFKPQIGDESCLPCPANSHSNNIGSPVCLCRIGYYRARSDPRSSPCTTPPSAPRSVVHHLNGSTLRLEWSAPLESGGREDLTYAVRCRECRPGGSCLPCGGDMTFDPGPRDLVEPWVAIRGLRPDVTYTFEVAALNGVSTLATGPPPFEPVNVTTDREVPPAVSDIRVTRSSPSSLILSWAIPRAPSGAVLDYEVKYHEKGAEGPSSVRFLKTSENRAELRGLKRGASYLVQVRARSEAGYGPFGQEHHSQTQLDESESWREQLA
Experimental: The IC50 values in Table 4 were obtained from inhibition assays. […] Reati-bind Protein A coated strip plates were washed three times with wash buffer TBST/Ca. Plates were coated with murine ephrin-B2-Fc (reconstituted in PBS 200 μg/ml, diluted to 1 μg/ml with TBST/Ca) 100 μl/well for 1 h at ambient temperature. The control used was Human-Fc (1 μg/ml; 100 μl/well); Human-Fc is the control for ephrin-B2-Fc, which contains the extracellular domain of ephrin-B2 fused to the Fc portion of human IgG1. The plates were washed four times with TBST/Ca. For each well was added: PEG-TNYL-RAW-biotin, from PEGylation reaction in Example 2, supra, at different concentrations; 10 μl murine EphB4-Alkaline Phosphatase (EphB4-AP); and TBST/Ca to 50 μl. Plates were incubates for 3 hours at ambient temperature, then washed four times with TBST/Ca. Substrate, 1 mg/ml PNPP in SEAP buffer, was added in the amount of 100 μl/well. (2×SEAP buffer (pH=9.8) was prepared by: adding 2.1 ml diethanolamine and 10 μl 1M MgCl2 to 10 ml (total) water; adjusting pH to 9.8; wrapping in foil and storing at ambient temperature; and diluting with water to 1× on day of use). Optical density analysis (OD405) was performed using a plate reader to determine the extent to which PEG-TNYL-RAW-biotin inhibits the EphB4-ephrin-B2 interaction. […]

[5] = molecular target: T3, murine EphB4 (Mus musculus, UniProt P54761); test: Binding ELISA on immobilized murine EphB4-Fc, streptavidin-HRP detection (Table 3); conditions: binding to murine EphB4; based on the estimated concentration of peptide-coupled PEG molecules; read-out: KD ± SE
T3 construct: purchased R&D Systems 446-B4-200
T3 sequence (P54761 16-539 limits assumed): T2 sequence (P54761 16-539 limits assumed)
Experimental: The dissociation constants in Table 3 were measured in binding assays as described below. Reacti-bind Protein A coated strip plates were washed three times with the wash buffer TBST/Ca (TBS, 0.01% Tween, 1 mM CaCl2). Plates were coated with murine EphB4-Fc (reconstituted in PBS 200 μg/ml, diluted to 1 μg/ml in TBST/Ca) 100 μl/well for 1 hour at ambient temperature. The plates were washed four times with TBST/Ca. PEG-TNYL-RAW-biotin (made by The Burnham Institute, La Jolla, Calif.), obtained from the PEGylation reaction described in Example 2 supra, was added at different concentrations in TBST/Ca (100 μl/well) for 1 hour at ambient temperature. The plates were again washed four times with TBST/Ca. Streptavidin-HRP (1:2000) in 100 μl TBST/Ca was added for 1 hour at ambient temperature. The plates were again washed four times with TBST/Ca.

[6] = molecular target: T4, EphB4 (Mus musculus, UniProt P54761); test: EphB receptor specificity (% binding), Table 1; conditions: binding to EphB4
T4 sequence (P54761 16-987): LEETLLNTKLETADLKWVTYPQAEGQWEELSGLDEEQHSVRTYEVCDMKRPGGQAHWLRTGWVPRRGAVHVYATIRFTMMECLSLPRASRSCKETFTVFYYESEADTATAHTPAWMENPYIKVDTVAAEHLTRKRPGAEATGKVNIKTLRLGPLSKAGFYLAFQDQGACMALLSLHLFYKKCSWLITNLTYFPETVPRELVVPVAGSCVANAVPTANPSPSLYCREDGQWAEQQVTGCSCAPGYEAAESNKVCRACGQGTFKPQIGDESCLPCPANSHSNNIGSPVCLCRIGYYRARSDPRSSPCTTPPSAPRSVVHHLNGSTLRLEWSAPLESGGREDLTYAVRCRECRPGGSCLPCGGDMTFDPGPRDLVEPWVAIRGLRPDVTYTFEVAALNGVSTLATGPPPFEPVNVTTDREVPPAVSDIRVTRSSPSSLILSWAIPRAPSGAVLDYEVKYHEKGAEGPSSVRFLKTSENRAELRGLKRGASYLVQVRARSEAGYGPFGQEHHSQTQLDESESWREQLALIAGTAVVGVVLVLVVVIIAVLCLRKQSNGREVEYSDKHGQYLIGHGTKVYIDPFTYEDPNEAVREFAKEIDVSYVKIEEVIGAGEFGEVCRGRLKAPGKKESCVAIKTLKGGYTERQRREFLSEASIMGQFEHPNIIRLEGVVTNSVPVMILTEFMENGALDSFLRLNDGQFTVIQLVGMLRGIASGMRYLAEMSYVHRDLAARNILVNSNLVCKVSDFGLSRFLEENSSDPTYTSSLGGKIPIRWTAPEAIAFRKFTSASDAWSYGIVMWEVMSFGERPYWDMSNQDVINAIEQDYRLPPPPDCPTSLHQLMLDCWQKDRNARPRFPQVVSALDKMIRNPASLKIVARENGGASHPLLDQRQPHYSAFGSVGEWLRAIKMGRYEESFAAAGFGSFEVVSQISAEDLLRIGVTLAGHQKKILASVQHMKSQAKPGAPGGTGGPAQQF

Compound: CC[C@H](C)[C@H](NC(=O)[C@@H](NC(=O)[C@@H]1CCCN1C(=O)[C@@H](N)CC(N)=O)C(C)C)C(=O)NCC(=O)N1CCC[C@H]1C(=O)N[C@H](C(=O)N[C@@H](CCC(N)=O)C(=O)N[C@@H](CCCNC(=N)N)C(=O)N[C@@H](C)C(=O)N[C@@H](Cc1c[nH]c2ccccc12)C(=O)N[C@H](C(=O)O)[C@@H](C)O)[C@@H](C)CC [compound 27]
- EphB Receptor Specificity (% Binding) B1 [1]: 1%

Compound: AHTFPYPHPKPH [compound 3]
- IC50 [2]: ~150000 nM
- EphB Receptor Specificity (% Binding) B2 [3]: 4%
- EphB Receptor Specificity (% Binding) B1 [1]: 100%

Compound: TYFDFQAWSIRA [compound 22]
- EphB Receptor Specificity (% Binding) B1 [1]: 10%

Compound: 10 Kd (monomer): one TNYL-RAW peptide (with biotin) conjugated to a 10 kDa PEG molecule (TNYLFSPNGPIARAW; also: conjugated to a 10 kDa PEG, site not given here, biotin, position not given here)
- IC50 [4]: 21 ± 5 nM
- Kd [5]: 1.4 ± 0.7 nM

Compound: CC[C@H](C)[C@H](NC(=O)[C@@H]1CCCN1C(=O)CNC(=O)[C@H](CC(N)=O)NC(=O)[C@@H]1CCCN1C(=O)[C@H](CO)NC(=O)[C@H](Cc1ccccc1)NC(=O)[C@H](CC(C)C)NC(=O)[C@H](Cc1ccc(O)cc1)NC(=O)[C@H](CC(N)=O)NC(=O)[C@@H](N)[C@@H](C)O)C(=O)N[C@@H](C)C(=O)O [compound 24]
- EphB Receptor Specificity (% Binding) B1 [1]: 5%

Compound: 10 Kd (dimer): two TNYL-RAW peptides (with biotin) conjugated to a 10 kDa bifunctional PEG (SMB-PEG-SMB) (TNYLFSPNGPIARAW; also: biotin, position not given here, dimer: two peptides joined by 10 kDa bifunctional PEG (SMB-PEG-SMB))
- IC50 [4]: 9 ± 2 nM
- Kd [5]: 0.9 ± 0.2 nM

Compound: DHNHNLYNPWRL [compound 21]
- EphB Receptor Specificity (% Binding) B2 [3]: 8%
- EphB Receptor Specificity (% Binding) B1 [1]: 9%

Compound: 3.4 Kd (dimer): two TNYL-RAW peptides (with biotin) conjugated to a 3.4 kDa bifunctional PEG (SMB-PEG-SMB) (TNYLFSPNGPIARAW; also: biotin, position not given here, dimer: two peptides joined by 3.4 kDa bifunctional PEG (SMB-PEG-SMB))
- Kd [5]: 0.9 ± 0.3 nM

Compound: CC[C@H](C)[C@H](NC(=O)[C@H](C)NC(=O)[C@H](Cc1ccccc1)NC(=O)[C@@H]1CCCN1C(=O)[C@H](CCC(=O)O)NC(=O)[C@@H](NC(=O)[C@@H](NC(=O)[C@H](Cc1c[nH]c2ccccc12)NC(=O)[C@H](Cc1c[nH]cn1)NC(=O)[C@@H](N)Cc1c[nH]c2ccccc12)[C@@H](C)O)[C@@H](C)CC)C(=O)N[C@H](C(=O)N[C@@H](CO)C(=O)O)[C@@H](C)O [compound 8]
- EphB Receptor Specificity (% Binding) B1 [1]: 99%

Compound: EWLSPNLAPSVR [compound 1]
- IC50 ([2]; panning receptor EphB1): ~10000 nM
- EphB Receptor Specificity (% Binding) B2 [3]: 2%

Compound: CC[C@H](C)[C@H](NC(=O)[C@@H]1CCCN1C(=O)[C@H](Cc1c[nH]c2ccccc12)NC(=O)[C@H](Cc1c[nH]cn1)NC(=O)[C@@H](N)CO)C(=O)N[C@@H](CO)C(=O)N1CCC[C@H]1C(=O)N[C@@H](Cc1ccc(O)cc1)C(=O)N[C@@H](CO)C(=O)N[C@@H](CC(C)C)C(=O)N[C@@H](CC(C)C)C(=O)N[C@@H](CO)C(=O)O [compound 14]
- EphB Receptor Specificity (% Binding) B1 [1]: 39%

Compound: 35 (SGHQLLNKMPN; EphB4-binding peptide) [compound 35]
- EphB Receptor Specificity (% Binding) B4 [6]: 100%

Compound: TNYLFSPNGPIARAW [TNYL-RAW]
- stability in cell conditioned medium (cell conditioned medium in the absence of the cells (FIG. 3C)): rapidly lost
- stability in cell culture medium with PC3 cells (medium replaced with fresh medium just before adding the peptide (FIG. 3B)): remained intact for several hours
- stability in cell conditioned medium with protease inhibitors (mixture of protease inhibitors (aprotinin, PMSF, leupeptin, pepstatin) added to conditioned medium (FIG. 3D)): reduce peptide instability

Compound: CC[C@H](C)[C@H](NC(=O)[C@H](CCCNC(=N)N)NC(=O)[C@H](Cc1c[nH]c2ccccc12)NC(=O)[C@H](Cc1c[nH]cn1)NC(=O)[C@@H](N)CC(=O)O)C(=O)N[C@@H](CC(C)C)C(=O)N1CCC[C@H]1C(=O)N[C@@H](Cc1ccccc1)C(=O)N[C@@H](CO)C(=O)N[C@@H](CC(C)C)C(=O)N[C@@H](CO)C(=O)N[C@@H](CO)C(=O)O [compound 10]
- EphB Receptor Specificity (% Binding) B1 [1]: 53%

Compound: CC(C)C[C@H](NC(=O)[C@H](C)NC(=O)[C@@H](N)CC(=O)O)C(=O)N[C@@H](CC(N)=O)C(=O)N[C@@H](CC(=O)O)C(=O)N[C@@H](Cc1c[nH]c2ccccc12)C(=O)N[C@@H](CC(C)C)C(=O)N[C@@H](CC(C)C)C(=O)N[C@@H](Cc1ccccc1)C(=O)N[C@@H](CCCNC(=N)N)C(=O)N1CCC[C@H]1C(=O)N[C@@H](Cc1c[nH]c2ccccc12)C(=O)O [compound 20]
- EphB Receptor Specificity (% Binding) B1 [1]: 0%

Compound: FSPQGPAARNFA [compound 25]
- EphB Receptor Specificity (% Binding) B1 [1]: 13%

Compound: EWYMKFPPEHYF [compound 19]
- EphB Receptor Specificity (% Binding) B1 [1]: 22%
